Reference: patent US20210139517A1, “BICYCLIC HETEROARYL COMPOUNDS AND USES THEREOF” (Revolution Medicines, Inc., priority 2019, published 2021)
pIC50: −log10 of the molar value.

System: SOS1 function in cells: cellular pERK in PC-9 cells (EGFR Ex19Del)
Assay: pERK potency assay in PC-9 cells (AlphaLISA SureFire Ultra p-ERK1/2)
Format: cell-based
Settings: 1 hour incubation
Experimental: The purpose of this assay is tomeasure the ability of test compounds to inhibit SOS1 function in cells. SOS1 activates RAS proteins by catalyzing the conversion of RAS-GDP to RAS-GTP in response to receptor tyrosine kinase activation. […] The procedure described below measures the level of cellular pERK in response to test compounds in PC-9 cells (EGFR Ex19Del).
PC-9 cells were grown and maintained using media and procedures recommended by the ATCC. On the day prior to compound addition, cells were plated in 384-well cell culture plates (40 μL/well) and grown overnight in a 37° C., 5% CO2 incubator. Test compounds were prepared in 10, 3-fold dilutions in DMSO, with a top concentration of 10 mM. On the day of the assay, 40 nL of test compound was added to each well of cell culture plate using an Echo550 liquid handler (LabCyte). Concentrations of test compound were tested in duplicate with highest test concentration being 10 μM. After compound addition, cells were incubated for 1 hour at 37° C., 5% CO2. Following incubation, culture medium was removed and cells were washed once with phosphate buffered saline.
Cellular pERK level was determined using the AlphaLISA SureFire Ultra p-ERK1/2 Assay Kit (PerkinElmer). Cells were lysed in 25 μL lysis buffer, with shaking at 600 RPM at room temperature for 15 minutes. Lysate (10 μL) was transferred to a 384-well Opti-plate (PerkinElmer) and 5 μL acceptor mix was added. The plate was centrifuged at 1000 RPM for 1 minute, and incubated in the dark for 2 hours. Following this incubation, 5 μL of donor mix was added, the plate was sealed and centrifuged at 1000 RPM for 1 minute, and the mixture was incubated for 2 hours at room temperature. Signal was read on an Envision plate reader (PerkinElmer) using standard AlphaLISA settings. Analysis of raw data was carried out in Excel (Microsoft) and Prism (GraphPad). Signal was plotted vs. the decadal logarithm of compound concentration, and IC50 was determined by fitting a 4-parameter sigmoidal concentration response model.

pIC50 | pIC50 (Homo sapiens, PC-9, 1 h) | Structure (SMILES)
5.92 |  | C[C@@H](Nc1ncnc2c1cc(-c1cnc(F)nc1)c(=O)n2C)c1cccc(C(F)F)c1F [Example 21-5]
6.82 |  | COc1ncccc1-c1cc2c(N[C@H](C)c3cccc(C(F)F)c3F)ncnc2n(C)c1=O [Example 21-7]
6.48 |  | C[C@@H](Nc1ncnc2c1cc(-c1ccc3nonc3c1)c(=O)n2C)c1cccc(C(F)F)c1F [Example 21-8]
6.73 |  | C[C@@H](Nc1ncnc2c1cc(C1(O)CCN(C)CC1)c(=O)n2C)c1cccc(C(F)F)c1F [Example 28-1]
6.24 |  | Cc1nc(N[C@H](C)c2cccc(C(F)F)c2F)c2cc(C3(O)CCN(C)CC3)c(=O)n(C)c2n1 [Example 28-2]
5.65 |  | COC1(c2cc3c(N[C@H](C)c4cccc(C(F)F)c4F)ncnc3n(C)c2=O)CCN(C)CC1 [Example 32-3]
6.89 |  | COC1(c2cc3c(N[C@H](C)c4cccc(C(F)F)c4F)ncnc3n(C)c2=O)CCS(=O)(=O)C(C)C1 (stereo partly shown) [Example 32-67]
7.17 |  | COC1(c2cc3c(N[C@H](C)c4cccc(C(F)F)c4F)ncnc3n(C)c2=O)CCCN(C(C)=O)C1 (stereo partly shown) [Example 32-68]
7.11 |  | CO[C@@]1(c2cc3c(N[C@H](C)c4cccc(C(F)F)c4F)nc(C)nc3n(C)c2=O)CCN(C(C)=O)C1 [Example 32-69]
6.46 |  | CC(=O)N1CCC(OC2CC2)(c2cc3c(N[C@H](C)c4cccc(C(F)F)c4F)ncnc3n(C)c2=O)C1 (stereo partly shown) [Example 32-70]
7.38 |  | CC(=O)N1CCC(OC2CC2)(c2cc3c(N[C@H](C)c4cccc(C(F)F)c4F)ncnc3n(C)c2=O)C1 (stereo partly shown) [Example 32-71]
6.90 |  | COC1(c2cc3c(N[C@H](C)c4cccc(C(F)F)c4F)ncnc3n(C)c2=O)CCC2(CC1)COC2 [Example 32-72]
7.24 |  | COC1(c2cc3c(N[C@H](C)c4cccc(C(F)F)c4F)ncnc3n(C)c2=O)CCS(=O)(=O)C1 (stereo partly shown) [Example 32-73]
6.70 |  | COC1(c2cc3c(N[C@H](C)c4cccc(C(F)F)c4F)ncnc3n(C)c2=O)CCS(=O)(=O)C1 (stereo partly shown) [Example 32-74]
7.76 |  | COC1(c2cc3c(N[C@H](C)c4cccc5c4OCC5(F)F)ncnc3n(C)c2=O)CCN(C(C)=O)CC1 [Example 32-76]
7.32 |  | COC1(c2cc3c(N[C@H](C)c4cccc5c4OCC5(F)F)ncnc3n(C)c2=O)CCS(=O)(=O)CC1 [Example 32-77]
7.31 |  | COC1(c2cc3c(N[C@H](C)c4cccc(C(F)F)c4F)ncnc3n(C)c2=O)CCC2(CC1)CN(C(C)=O)C2 [Example 32-78]
6.81 |  | COC1(c2cc3c(N[C@H](C)c4cccc(C(F)F)c4F)ncnc3n(C)c2=O)CC2(COC2)C1 [Example 32-80]
6.49 |  | COC1(c2cc3c(N[C@H](C)c4cccc(C(F)F)c4F)ncnc3n(C)c2=O)CCC2(CC1)CS(=O)(=NC1CC1)C2 (stereo partly shown) [Example 32-83]
6.76 |  | COC1(c2cc3c(N[C@H](C)c4cccc(C(F)F)c4F)ncnc3n(C)c2=O)CC2CS(=O)(=O)CC2C1 (stereo partly shown) [Example 32-84]
7.27 |  | COC1(c2cc3c(N[C@H](C)c4cccc(C(F)F)c4F)ncnc3n(C)c2=O)CC2CS(=O)(=O)CC2C1 (stereo partly shown) [Example 32-85]
7.08 |  | COC1(c2cc3c(N[C@H](C)c4cccc(C(F)F)c4C)ncnc3n(C)c2=O)CCS(=O)(=O)CC1 [Example 32-86]
7.87 |  | COC1(c2cc3c(N[C@H](C)c4cccc(C(F)F)c4C)ncnc3n(C)c2=O)CCN(C(C)=O)CC1 [Example 32-87]
8.09 |  | COC1(c2cc3c(N[C@@H](C)c4cccc(C(F)F)c4F)ncnc3n(C)c2=O)CCN(C(C)=O)CC1 [Example 32-88]
6.53 |  | CO[C@@]1(c2cc3c(N[C@H](C)c4cccc5c4OCC5(F)F)ncnc3n(C)c2=O)CCN(C(C)=O)C1 [Example 32-93]
7.55 |  | CO[C@]1(c2cc3c(N[C@H](C)c4cccc5c4OCC5(F)F)ncnc3n(C)c2=O)CCN(C(C)=O)C1 [Example 32-94]
6.10 |  | COC1(c2cc3c(N[C@H](C)c4cccc(C(F)F)c4F)ncnc3n(C)c2=O)CN(C(C)=O)CC12CC2 (stereo partly shown) [Example 32-95]
6.64 |  | CO[C@]1(c2cc3c(N[C@H](C)c4cccc(C(F)F)c4C)ncnc3n(C)c2=O)CCN(C(C)=O)C1 [Example 32-98]
7.77 |  | CO[C@@]1(c2cc3c(N[C@H](C)c4cccc(C(F)F)c4C)ncnc3n(C)c2=O)CCN(C(C)=O)C1 [Example 32-99]

Further lines, the compound ahead of its results:

Structure (SMILES) | pIC50 | pIC50 (Homo sapiens, PC-9, 1 h)
CC(=O)N1CCC(c2cc3c(N[C@H](C)c4cccc(C(F)F)c4F)ncnc3n(C)c2=O)CC1 [Example 8-3] | 6.84 | 
C[C@@H](Nc1ncnc2c1cc(C1CCN(CCF)CC1)c(=O)n2C)c1cccc(C(F)F)c1F [Example 8-4] | 6.64 | 
C[C@@H](Nc1ncnc2c1cc(C1CCS(=O)(=O)CC1)c(=O)n2C)c1cccc(C(F)F)c1F [Example 8-5] | 7.47 | 
CC(=O)N1CCC(c2cc3c(N[C@H](C)c4cccc5c4CCC5(F)F)ncnc3n(C)c2=O)CC1 [Example 8-6] | 7.46 | 
CCc1c(C(F)F)cccc1[C@@H](C)Nc1ncnc2c1cc(C1CCN(C(C)=O)CC1)c(=O)n2C [Example 8-7] | 6.45 | 
C[C@@H](Nc1ncnc2c1cc(C1CCN(C3COC3)CC1)c(=O)n2C)c1cccc(C(F)F)c1F [Example 8-8] | 6.41 | 
CC(=O)N1CCC(c2cc3c(N[C@H](C)c4cccc(C(F)F)c4F)nc(C)nc3n(C)c2=O)CC1 [Example 8-9] | 7.06 | 
C[C@@H](Nc1ncnc2c1cc(C1CCN(C(=O)CO)CC1)c(=O)n2C)c1cccc(C(F)F)c1F [Example 8-10] | 7.21 | 
Cc1c([C@@H](C)Nc2ncnc3c2cc(C2CCS(=O)(=O)CC2)c(=O)n3C)cccc1C(F)(F)F [Example 8-11] | 7.35 | 
Cc1nc(N[C@H](C)c2cccc(C(F)F)c2F)c2cc(C3CCS(=O)(=O)CC3)c(=O)n(C)c2n1 [Example 8-12] | 6.86 | 
C[C@@H](Nc1ncnc2c1cc(C1CCN(CC(F)F)CC1)c(=O)n2C)c1cccc(C(F)F)c1F [Example 8-13] | 6.44 | 
Cc1nc(N[C@H](C)c2cccc(C(F)F)c2F)c2cc(C3CCN(C4COC4)CC3)c(=O)n(C)c2n1 [Example 8-14] | 6.38 | 
C[C@@H](Nc1ncnc2c1cc(C1CCN(S(C)(=O)=O)CC1)c(=O)n2C)c1cccc(C(F)F)c1F [Example 8-15] | 6.40 | 
C[C@@H](Nc1ncnc2c1cc(C1CCN(CC(F)(F)F)CC1)c(=O)n2C)c1cccc(C(F)F)c1F [Example 8-16] | 6.04 | 
Cc1nc(N[C@H](C)c2cccc(C(F)F)c2F)c2cc(C3CCN(CC(F)(F)F)CC3)c(=O)n(C)c2n1 [Example 8-17] | 6.27 | 
Cc1nc(N[C@H](C)c2cccc(C(F)F)c2F)c2cc(C3=CCCOC3)c(=O)n(CCO)c2n1 [Example 11-1] | 6.46 | 
C[C@@H](Nc1ncnc2c1cc(C1=CCS(=O)(=O)CC1)c(=O)n2CC#N)c1cccc(C(F)F)c1F [Example 11-3] | 7.09 | 
COC1(c2cc3c(N[C@H](C)c4cccc(C(F)F)c4F)ncnc3n(C3CC3)c2=O)CCN(C(C)=O)CC1 [Example 11-4] | 7.49 | 
Cc1nc(N[C@H](C)c2cccc(C(F)F)c2F)c2cc(C3COC3)c(=O)n(C)c2n1 [Example 16, 4-[[(1R)-1-[3-(difluoromethyl)-2-fluoro-phenyl]ethyl]amino]-2,8-dimethyl-6-(oxetan-3-yl)pyrido[2,3-d]pyrimidin-7-one] |  | 6.46
CC(=O)N1CCC(c2cc3c(N[C@H](C)c4cc(N)cc(C(F)(F)F)n4)ncnc3n(C)c2=O)CC1 [Example 17, 6-(1-acetyl-4-piperidyl)-4-[[(1R)-1-[4-amino-6-(trifluoromethyl)-2-pyridyl]ethyl]amino]-8-methyl-pyrido[2,3-d]pyrimidin-7-one] |  | 6.42
COc1ccc(Cc2cc3c(N[C@H](C)c4cccc(C(F)F)c4F)nc(C)nc3n(C)c2=O)cc1OC [Example 20-1] | 5.18 | 
C[C@@H](Nc1ncnc2c1cc(Cc1ccccc1)c(=O)n2C)c1cccc(C(F)F)c1F [Example 20-2] | 5.59 | 
C[C@@H](Nc1ncnc2c1cc(Cc1ccccc1)c(=O)n2C)c1cccc(C(F)(F)F)c1 [Example 20-3] | 5.58 | 
COc1cccc(Cc2cc3c(N[C@H](C)c4cccc(C(F)F)c4F)nc(C)nc3n(C)c2=O)c1OC [Example 20] | 5.40 | 
C[C@@H](Nc1ncnc2c1cc(-c1ccc[nH]1)c(=O)n2C)c1cccc(C(F)F)c1F [Example 21-1] | 5.94 | 
C[C@@H](Nc1ncnc2c1cc(-c1cncnc1)c(=O)n2C)c1cccc(C(F)F)c1F [Example 21-2] | 6.61 | 
Cc1nc(N[C@H](C)c2cccc(C(F)F)c2F)c2cc(-c3ccnnc3)c(=O)n(C)c2n1 [Example 21-3] | 6.73 | 
Cc1nc(N[C@H](C)c2cccc(C(F)F)c2F)c2cc(-c3cncnc3)c(=O)n(C)c2n1 [Example 21-4] | 6.44 | 
C[C@@H](Nc1ncnc2c1cc(C1(N)CCC3(CC1)CS(=O)(=O)C3)c(=O)n2C)c1cccc(C(F)F)c1F [Example 31-5] | 7.57 | 
